Reference: article PMC7395850 (Biochemical and biophysical research communications, 2019)

Experiments:
Format in all cases: biochemical
[1] = target: T1, N-phos in human sEH (Homo sapiens, UniProt P34913); assay: N-phos activity assay with AttoPhos substrate, human sEH; settings: for species preference of N-phos inhibition (human versus mouse), in words: human at 30 μM versus mouse at 6 μM (Figure 1B); for inhibition of human N-phos: inhibitor at 30 μM; for inhibition of human N-phos, in words: screening, 30 μM; for Ki: read-out: KI for human N-phos, competitive with respect to AttoPhos; for inhibition mechanism, human N-phos: with respect to the substrate AttoPhos; for selectivity index (N-phos over C-EH) in human sEH: IC50 C-EH / IC50 N-phos
T1 sequence (P34913 1-555): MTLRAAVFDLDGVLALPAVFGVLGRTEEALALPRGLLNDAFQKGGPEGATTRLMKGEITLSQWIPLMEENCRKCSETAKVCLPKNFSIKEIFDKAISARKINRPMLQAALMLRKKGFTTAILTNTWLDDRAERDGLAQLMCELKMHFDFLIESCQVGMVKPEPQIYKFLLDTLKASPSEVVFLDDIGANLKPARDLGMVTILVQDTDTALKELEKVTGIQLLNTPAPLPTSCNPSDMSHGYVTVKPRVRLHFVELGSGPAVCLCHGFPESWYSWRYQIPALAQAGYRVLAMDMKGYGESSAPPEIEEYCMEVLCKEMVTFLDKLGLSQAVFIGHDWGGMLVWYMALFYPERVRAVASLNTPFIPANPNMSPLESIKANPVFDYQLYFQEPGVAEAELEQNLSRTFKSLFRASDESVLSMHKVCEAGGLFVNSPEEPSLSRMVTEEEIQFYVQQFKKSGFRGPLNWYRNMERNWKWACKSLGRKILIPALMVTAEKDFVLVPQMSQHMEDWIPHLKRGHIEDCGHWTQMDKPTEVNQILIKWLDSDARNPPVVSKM

[2] = target: T2, C-EH in mouse sEH (Mus musculus, UniProt P34914); assay: C-EH activity assay with PHOME substrate, mouse sEH; settings: for time-dependent change in C-EH inhibition, mouse sEH: preincubation time-window 1.7−120 min; for IC50: read-out: IC50 for C-EH in mouse sEH, mouse sEH, PHOME substrate
T2 sequence (P34914 1-554): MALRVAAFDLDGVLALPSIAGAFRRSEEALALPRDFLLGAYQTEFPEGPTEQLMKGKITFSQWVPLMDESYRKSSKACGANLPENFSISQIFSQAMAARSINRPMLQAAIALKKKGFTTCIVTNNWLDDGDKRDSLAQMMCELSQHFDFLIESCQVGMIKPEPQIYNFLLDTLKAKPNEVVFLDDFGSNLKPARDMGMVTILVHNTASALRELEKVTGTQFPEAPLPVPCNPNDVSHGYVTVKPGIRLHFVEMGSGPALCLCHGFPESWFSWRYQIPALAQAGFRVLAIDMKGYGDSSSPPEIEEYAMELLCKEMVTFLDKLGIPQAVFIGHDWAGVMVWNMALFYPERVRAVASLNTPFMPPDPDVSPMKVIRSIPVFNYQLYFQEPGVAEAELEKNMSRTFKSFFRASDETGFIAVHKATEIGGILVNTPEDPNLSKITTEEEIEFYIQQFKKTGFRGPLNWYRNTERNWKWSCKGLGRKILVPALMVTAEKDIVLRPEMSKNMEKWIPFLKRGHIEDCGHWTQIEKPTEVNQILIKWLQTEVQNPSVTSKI

[3] = target: T3, N-phos in mouse sEH (Mus musculus, UniProt P34914); assay: N-phos activity assay with AttoPhos substrate, mouse sEH; settings: for selectivity index (N-phos over C-EH) in mouse sEH: IC50 C-EH / IC50 N-phos; for inhibition of mouse N-phos: inhibitor at 6 μM; for inhibition of mouse N-phos, in words: screening, 6 μM; for species preference of N-phos inhibition (mouse versus human), in words: mouse at 6 μM versus human at 30 μM (Figure 1D); for Ki: read-out: KI for mouse N-phos, competitive with respect to AttoPhos; for inhibition mechanism, mouse N-phos: with respect to the substrate AttoPhos
T3 sequence (P34914 1-554): T2 sequence (P34914 1-554)

[4] = target: T4, C-EH in human sEH (Homo sapiens, UniProt P34913); assay: C-EH activity assay with PHOME substrate, human sEH; settings: for time-dependent change in C-EH inhibition, human sEH: preincubation 1.7, 10, 30 and 120 min; for IC50: read-out: IC50 for C-EH in human sEH, human sEH, PHOME substrate
T4 sequence (P34913 1-555): T1 sequence (P34913 1-555)

With `CC(C)(C)OC(=O)N[C@H](Cc1ccc(OC(=O)OCc2ccccc2Br)cc1)C(=O)O` [Compound 30, Boc-D-Tyr(2-Br-Z)] the “species preference of N-phos inhibition (human versus mouse), in words” value [1] was “more potent on inhibiting the human N-phos than the mouse enzyme” and the “inhibition of human N-phos” value [1] was greater than 72%.
With `O=C(N[C@@H](Cc1c[nH]c2ccccc12)C(=O)O)OCC1c2ccccc2-c2ccccc21` [Compound 78, Fmoc-L-Trp] the “time-dependent change in C-EH inhibition, mouse sEH” value [2] was “did not display any time-dependent change”, the IC50 [2] was roughly 200 µM and the “inhibition of human N-phos, in words” value [1] was “inhibitory”. The “selectivity index (N-phos over C-EH) in mouse sEH” value [3] was ~ 50, the “inhibition of mouse N-phos” value [3] was greater than 75% and the “inhibition of mouse N-phos, in words” value [3] was “inhibitory”.
In the case of `O=C(N[C@@H](Cc1ccccc1Cl)C(=O)O)OCC1c2ccccc2-c2ccccc21` [Compound 73, Fmoc-L-Phe(2-Cl)], the “inhibition of mouse N-phos” value [3] is reported as greater than 75% and the “species preference of N-phos inhibition (mouse versus human), in words” value [3] is reported as “more potent on inhibiting the mouse N-phos than the human enzyme”.
In the case of `CC(C)(C)OC(=O)n1cc(C[C@@H](NC(=O)OCC2c3ccccc3-c3ccccc32)C(=O)O)c2ccccc21` [Compound 96, Fmoc-D-Trp(Boc)], the “inhibition of human N-phos” value [1] is reported as greater than 72%, the “inhibition of human N-phos, in words” value [1] is reported as “inhibitory” and the “inhibition of mouse N-phos” value [3] is reported as greater than 75%. For the same compound, the “inhibition of mouse N-phos, in words” value [3] was “inhibitory”.
`N#Cc1ccc(C[C@H](NC(=O)OCC2c3ccccc3-c3ccccc32)C(=O)O)cc1` [Compound 67, Fmoc-L-Phe(4-CN)] was tested, and the “time-dependent change in C-EH inhibition, mouse sEH” value [2] was “did not display any time-dependent change”, the IC50 [2] was 85 µM and the Ki [1] was 26 µM. For the same compound, the “inhibition mechanism, human N-phos” value [1] was “competitively”, the “selectivity index (N-phos over C-EH) in mouse sEH” value [3] was 37 and the “inhibition of mouse N-phos” value [3] was greater than 75%. For the same compound, the “species preference of N-phos inhibition (mouse versus human), in words” value [3] was “more potent on inhibiting the mouse N-phos than the human enzyme”, the “preference for mouse N-phos over human N-phos” value ([3]; ratio of KI values) was 24 fold and the Ki [3] was 1.1 µM. For the same compound, the “inhibition mechanism, mouse N-phos” value [3] was “competitively”.
For `COc1ccc(C[C@@H](NC(=O)OCC2c3ccccc3-c3ccccc32)C(=O)O)cc1` [Compound 72, Fmoc-D-Tyr(Me)], the “selectivity index (N-phos over C-EH) in human sEH” value (shortened to “selectivity index … in human sEH”) [1] was greater than 31, the “inhibition of human N-phos” value [1] was greater than 72% and the “time-dependent change in C-EH inhibition, human sEH” value [4] was “no time-dependent change”. The IC50 [4] was greater than 200 µM.
In the case of `CC(C)(C)OC(=O)n1cc(C[C@H](NC(=O)OCC2c3ccccc3-c3ccccc32)C(=O)O)c2ccccc21` [Compound 95, Fmoc-L-Trp(Boc)], the “inhibition of human N-phos” value [1] is reported as greater than 72%, the “inhibition of human N-phos, in words” value [1] is reported as “inhibitory” and the “inhibition of mouse N-phos” value [3] is reported as greater than 75%. The “inhibition of mouse N-phos, in words” value [3] was “inhibitory”.
`CC(C)(C)OC(=O)N[C@@H](Cc1ccc(OCc2ccccc2)cc1)C(=O)O` [Compound 23, Boc-L-Tyr(Bzl)] was tested, and the “selectivity index … in human sEH” value [1] was 127, the “species preference of N-phos inhibition (human versus mouse), in words” value [1] was “more potent on inhibiting the human N-phos than the mouse enzyme” and the “inhibition of human N-phos” value [1] was greater than 72%. The “preference for human N-phos over mouse N-phos” value ([1]; ratio of KI values) was 10 fold, the Ki [1] was 0.89 µM and the “inhibition mechanism, human N-phos” value [1] was “competitively”. The “time-dependent change in C-EH inhibition, human sEH” value [4] was “no time-dependent change”, the IC50 [4] was 190 µM and the Ki [3] was 9 µM. For the same compound, the “inhibition mechanism, mouse N-phos” value [3] was “competitively”.
`CC(=O)N[C@@H](CSC/C=C(\C)CC/C=C(\C)CCC=C(C)C)C(=O)O` [AFC, N-Acetyl-S-farnesyl-L-cysteine, reference compound] was tested, and the IC50 [2] was 48 µM, the “selectivity index … in human sEH” value [1] was greater than 29 and the Ki [1] was 1.1 µM. The “inhibition mechanism, human N-phos” value [1] was “competitively”, the IC50 [4] was greater than 100 µM and the Ki [3] was 33 µM. The “inhibition mechanism, mouse N-phos” value [3] was “competitively”.
